In patent US20240100170A1, “CYCLIC-AMP RESPONSE ELEMENT BINDING PROTEIN (CBP) AND/OR ADENOVIRAL E1A BINDING PROTEIN OF 300 KDA (P300) DEGRADATION COMPOUNDS AND METHODS OF USE” (CULLGEN (SHANGHAI), INC., priority 2020, published 2024):
Read-outs that look alike come from different tables or passages of the source.

How the values were obtained:
[1] = tested on: LNCaP prostate cancer cell; experiment: LNCaP cell viability (CellTiter-Glo); format: cell-based; settings: Homo sapiens, 72 h, LNCaP cell viability, 3 days, CellTiter-Glo
Procedure, shortened: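 CellTiter-Glo luminescence measured three days after dosing with a 12-point 3-fold compound dilution series. LNCaP cells seeded at 5000/well in RPMI 1640 with 10% FBS; data normalized to untreated controls and IC50 fitted by nonlinear least-squares regression.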

P300 = P300 (Homo sapiens, UniProt Q09472); experiment: percentage of inhibition (degradation) of p300 at 10 nM, Tables 2-4; format: cell-based; set-up: LNCaP or 22RV1 cells that express CBP/P300 proteins were treated with GNE-781 or the bivalent compounds; endogenous in cells; host or cells: LNCaP or 22RV1 (not given); settings: for inhibition at 0.01 µM: read-out: Degradation (10 nM)
Chain of P300 (Q09472 whole entry): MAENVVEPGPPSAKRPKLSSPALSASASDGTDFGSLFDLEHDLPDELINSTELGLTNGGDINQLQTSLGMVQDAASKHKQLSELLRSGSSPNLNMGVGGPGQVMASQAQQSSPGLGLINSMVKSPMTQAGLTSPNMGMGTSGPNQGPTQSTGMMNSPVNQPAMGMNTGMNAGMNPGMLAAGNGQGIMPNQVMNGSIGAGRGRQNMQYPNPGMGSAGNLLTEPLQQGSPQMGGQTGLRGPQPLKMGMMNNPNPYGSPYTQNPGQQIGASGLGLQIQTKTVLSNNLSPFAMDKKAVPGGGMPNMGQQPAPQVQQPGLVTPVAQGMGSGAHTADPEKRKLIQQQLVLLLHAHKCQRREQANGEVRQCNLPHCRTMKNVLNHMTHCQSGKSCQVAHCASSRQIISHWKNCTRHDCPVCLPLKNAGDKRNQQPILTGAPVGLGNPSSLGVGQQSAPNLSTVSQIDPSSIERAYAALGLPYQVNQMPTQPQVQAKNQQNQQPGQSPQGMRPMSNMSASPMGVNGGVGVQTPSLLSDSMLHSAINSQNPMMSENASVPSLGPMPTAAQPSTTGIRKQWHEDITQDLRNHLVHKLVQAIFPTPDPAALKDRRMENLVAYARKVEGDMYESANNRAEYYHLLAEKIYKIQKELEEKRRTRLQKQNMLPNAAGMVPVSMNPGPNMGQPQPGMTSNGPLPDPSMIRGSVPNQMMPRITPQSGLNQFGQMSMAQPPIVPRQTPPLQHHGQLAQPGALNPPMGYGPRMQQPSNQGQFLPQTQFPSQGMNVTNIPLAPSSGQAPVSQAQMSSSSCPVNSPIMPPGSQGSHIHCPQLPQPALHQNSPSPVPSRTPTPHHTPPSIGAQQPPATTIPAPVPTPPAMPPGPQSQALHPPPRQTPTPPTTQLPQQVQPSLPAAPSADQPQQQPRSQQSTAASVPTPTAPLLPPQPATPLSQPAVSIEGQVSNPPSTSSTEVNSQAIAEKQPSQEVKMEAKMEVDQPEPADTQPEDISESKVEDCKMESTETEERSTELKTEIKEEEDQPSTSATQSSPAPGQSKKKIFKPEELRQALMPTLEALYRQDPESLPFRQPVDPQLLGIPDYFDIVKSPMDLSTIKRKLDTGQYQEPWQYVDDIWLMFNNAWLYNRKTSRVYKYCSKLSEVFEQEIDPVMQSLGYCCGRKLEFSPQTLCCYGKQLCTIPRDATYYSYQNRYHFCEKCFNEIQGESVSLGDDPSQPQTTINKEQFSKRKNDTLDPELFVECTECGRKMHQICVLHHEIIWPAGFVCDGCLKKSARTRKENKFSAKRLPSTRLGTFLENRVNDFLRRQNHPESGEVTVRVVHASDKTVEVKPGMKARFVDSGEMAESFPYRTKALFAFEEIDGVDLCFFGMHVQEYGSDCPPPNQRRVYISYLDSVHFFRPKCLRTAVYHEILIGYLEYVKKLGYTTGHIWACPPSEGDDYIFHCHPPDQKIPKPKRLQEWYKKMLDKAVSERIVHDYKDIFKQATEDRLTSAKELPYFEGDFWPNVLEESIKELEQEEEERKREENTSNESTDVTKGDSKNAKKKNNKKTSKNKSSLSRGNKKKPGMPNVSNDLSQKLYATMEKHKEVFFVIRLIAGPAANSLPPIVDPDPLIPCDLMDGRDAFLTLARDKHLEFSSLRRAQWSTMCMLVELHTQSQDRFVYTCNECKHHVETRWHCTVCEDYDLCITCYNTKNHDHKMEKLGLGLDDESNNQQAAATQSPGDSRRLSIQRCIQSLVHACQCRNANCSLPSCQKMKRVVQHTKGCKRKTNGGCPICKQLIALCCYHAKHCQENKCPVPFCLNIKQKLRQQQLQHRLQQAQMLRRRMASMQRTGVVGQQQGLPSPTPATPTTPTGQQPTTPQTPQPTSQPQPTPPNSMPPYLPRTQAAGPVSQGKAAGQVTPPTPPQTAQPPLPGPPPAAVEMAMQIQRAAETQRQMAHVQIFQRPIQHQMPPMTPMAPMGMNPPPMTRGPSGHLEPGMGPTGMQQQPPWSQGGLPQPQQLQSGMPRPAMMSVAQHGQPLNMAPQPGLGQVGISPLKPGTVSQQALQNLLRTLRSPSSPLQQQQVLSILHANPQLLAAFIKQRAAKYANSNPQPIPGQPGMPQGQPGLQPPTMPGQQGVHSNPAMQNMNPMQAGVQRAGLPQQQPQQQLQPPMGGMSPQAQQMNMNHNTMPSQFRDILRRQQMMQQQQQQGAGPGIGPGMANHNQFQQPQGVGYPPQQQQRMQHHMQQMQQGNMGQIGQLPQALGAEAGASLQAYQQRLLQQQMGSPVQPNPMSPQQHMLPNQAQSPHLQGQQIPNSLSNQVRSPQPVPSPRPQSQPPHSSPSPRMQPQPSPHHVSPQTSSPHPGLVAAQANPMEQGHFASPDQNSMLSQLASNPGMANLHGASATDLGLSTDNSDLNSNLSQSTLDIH
Procedure, shortened: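 Degradation was measured at 10 nM. Cells or tissue were lysed in RIPA with protease and phosphatase inhibitors for 30 min at 4 °C and cleared, and protein was quantified by BCA. Lysates were resolved by SDS-PAGE, detected by chemiluminescent immunoblot, and bands were quantified by densitometry.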

Row | SMILES | IC50 ([1]; Table 4) [nM] | inhibition at 0.01 µM (P300; p300, 10 nM, Table 4) [%] | IC50 ([1]; Table 3) [nM] | Degradation (10 nM) (P300; p300, 10 nM, Table 3) | inhibition at 0.01 µM (P300) [%]
1 | CC(=O)N1CCc2c(c(N3CCCc4cc(-c5cnn(C)c5)c(C(F)F)cc43)nn2C2CCN(C(=O)CCCCCCCCn3c(=O)n(C4CCC(=O)NC4=O)c4ccccc43)CC2)C1 (centres unmarked) [P-163, 3-(3-(9-(4-(5-acetyl-3-(7-(difluoromethyl)-6-(1-methyl-1H-pyrazol-4-yl)-3,4-dihydroquinolin-1(2H)-yl)-4,5,6,7-tetrahydro-1H-pyrazolo[4,3-c]pyridin-1-yl)piperidin-1-yl)-9-oxononyl)-2-oxo-2,3-dihydro-1H-benzo[d]imidazol-1-yl)piperidine-2,6-dione] | – | – | 0.9 | A (A: Degradation ≥ 80%) | –
2 | CC(=O)N1CCc2c(c(N3CCCc4cc(-c5cnn(C)c5)c(C(F)F)cc43)nn2C2CCN(C(=O)CCCN3CCC(C#Cc4ccc5c(c4)n(C)c(=O)n5C4CCC(=O)NC4=O)CC3)CC2)C1 (centres unmarked) [P-211, 3-(5-((1-(4-(4-(5-acetyl-3-(7-(difluoromethyl)-6-(1-methyl-1H-pyrazol-4-yl)-3,4-dihydroquinolin-1(2H)-yl)-4,5,6,7-tetrahydro-1H-pyrazolo[4,3-c]pyridin-1-yl)piperidin-1-yl)-4-oxobutyl)piperidin-4-yl)ethynyl)-3-methyl-2-oxo-2,3-dihydro-1H-benzo[d]imidazol-1-yl)piperidine-2,6-dione] | 3.5 | > 80 | – | – | –
3 | CC(=O)N1CCc2c(c(N3CCCc4cc(-c5cnn(C)c5)c(C(F)F)cc43)nn2C2CCN(C(=O)CCN3CCC(C#Cc4cccc5c4n(C)c(=O)n5C4CCC(=O)NC4=O)CC3)CC2)C1 (centres unmarked) [P-231, 3-(4-((1-(3-(4-(5-acetyl-3-(7-(difluoromethyl)-6-(1-methyl-1H-pyrazol-4-yl)-3,4-dihydroquinolin-1(2H)-yl)-4,5,6,7-tetrahydro-1H-pyrazolo[4,3-c]pyridin-1-yl)piperidin-1-yl)-3-oxopropyl)piperidin-4-yl)ethynyl)-3-methyl-2-oxo-2,3-dihydro-1H-benzo[d]imidazol-1-yl)piperidine-2,6-dione] | 1.3 | > 80 | – | – | –
4 | CC(=O)N1CCc2c(c(N3CCCc4cc(-c5cnn(C)c5)c(C(F)F)cc43)nn2C2CCN(CCN3CCC(C4CN(c5cccc6c5C(=O)N(C5CCC(=O)NC5=O)C6=O)C4)CC3)CC2)C1 (centres unmarked) [P-187, 4-(3-(1-(2-(4-(5-acetyl-3-(7-(difluoromethyl)-6-(1-methyl-1H-pyrazol-4-yl)-3,4-dihydroquinolin-1(2H)-yl)-4,5,6,7-tetrahydro-1H-pyrazolo[4,3-c]pyridin-1-yl)piperidin-1-yl)ethyl)piperidin-4-yl)azetidin-1-yl)-2-(2,6-dioxopiperidin-3-yl)isoindoline-1,3-dione] | 2.3 | – | – | – | > 80
5 | CC(=O)N1CCc2c(c(N3CCCc4cc(-c5cnn(C)c5)c(C(F)F)cc43)nn2C2CCN(CCN3CCOC(COc4cccc5c4C(=O)N(C4CCC(=O)NC4=O)C5=O)C3)CC2)C1 (centres unmarked) [P-189, 4-((4-(2-(4-(5-acetyl-3-(7-(difluoromethyl)-6-(1-methyl-1H-pyrazol-4-yl)-3,4-dihydroquinolin-1(2H)-yl)-4,5,6,7-tetrahydro-1H-pyrazolo[4,3-c]pyridin-1-yl)piperidin-1-yl)ethyl)morpholin-2-yl)methoxy)-2-(2,6-dioxopiperidin-3-yl)isoindoline-1,3-dione] | 38 | – | – | – | > 80
6 | CC(=O)N1CCc2c(c(N3CCCc4cc(-c5cnn(C)c5)c(C(F)F)cc43)nn2C2CCN(C(=O)CCN3CCN(CCCc4cccc5c4n(C)c(=O)n5C4CCC(=O)NC4=O)CC3)CC2)C1 (centres unmarked) [P-239, 3-(4-(3-(4-(3-(4-(5-Acetyl-3-(7-(difluoromethyl)-6-(1-methyl-1H-pyrazol-4-yl)-3,4-dihydroquinolin-1(2H)-yl)-4,5,6,7-tetrahydro-1H-pyrazolo[4,3-c]pyridin-1-yl)piperidin-1-yl)-3-oxopropyl)piperazin-1-yl)propyl)-3-methyl-2-oxo-2,3-dihydro-1H-benzo[d]imidazol-1-yl)piperidine-2,6-dione] | 263 | < 20 | – | – | –
7 | CC(=O)N1CCc2c(c(N3CCCc4cc(-c5cnn(C)c5)c(C(F)F)cc43)nn2C2CCN(C(=O)CCCN3CCN(CC#Cc4cccc5c4n(C)c(=O)n5C4CCC(=O)NC4=O)CC3)CC2)C1 (centres unmarked) [P-224, 3-(4-(3-(4-(4-(4-(5-acetyl-3-(7-(difluoromethyl)-6-(1-methyl-1H-pyrazol-4-yl)-3,4-dihydroquinolin-1(2H)-yl)-4,5,6,7-tetrahydro-1H-pyrazolo[4,3-c]pyridin-1-yl)piperidin-1-yl)-4-oxobutyl)piperazin-1-yl)prop-1-yn-1-yl)-3-methyl-2-oxo-2,3-dihydro-1H-benzo[d]imidazol-1-yl)piperidine-2,6-dione] | 9.9 | > 80 | – | – | –

More lines, in order of falling IC50 ([1]; Table 4), values ahead:

Row | IC50 ([1]; Table 4) [nM] | inhibition at 0.01 µM (P300; p300, 10 nM, Table 4) [%] | SMILES | IC50 ([1]; Table 3) [nM] | Degradation (10 nM) (P300; p300, 10 nM, Table 3) | inhibition at 0.01 µM (P300) [%]
8 | 298 | 20 to 50 | CC(=O)N1CCc2c(c(N3CCCc4cc(-c5cnn(C)c5)c(C(F)F)cc43)nn2C2CCN(CCC3CCN(CCCc4cccc5c4C(=O)N(C4CCC(=O)NC4=O)C5=O)CC3)CC2)C1 (centres unmarked) [P-246, 4-(3-(4-(2-(4-(5-acetyl-3-(7-(difluoromethyl)-6-(1-methyl-1H-pyrazol-4-yl)-3,4-dihydroquinolin-1(2H)-yl)-4,5,6,7-tetrahydro-1H-pyrazolo[4,3-c]pyridin-1-yl)piperidin-1-yl)ethyl)piperidin-1-yl)propyl)-2-(2,6-dioxopiperidin-3-yl)isoindoline-1,3-dione] | – | – | –
9 | 158 | < 20 | CC(=O)N1CCc2c(c(N3CCCc4cc(-c5cnn(C)c5)c(C(F)F)cc43)nn2C2CCN(C(=O)CCN3CCC(Cn4c(=O)n(C5CCC(=O)NC5=O)c5ccccc54)CC3)CC2)C1 (centres unmarked) [P-205, 3-(3-((1-(3-(4-(5-acetyl-3-(7-(difluoromethyl)-6-(1-methyl-1H-pyrazol-4-yl)-3,4-dihydroquinolin-1(2H)-yl)-4,5,6,7-tetrahydro-1H-pyrazolo[4,3-c]pyridin-1-yl)piperidin-1-yl)-3-oxopropyl)piperidin-4-yl)methyl)-2-oxo-2,3-dihydro-1H-benzo[d]imidazol-1-yl)piperidine-2,6-dione] | – | – | –
10 | 17.6 | 50 to 80 | CC(=O)N1CCc2c(c(N3CCCc4cc(-c5cnn(C)c5)c(C(F)F)cc43)nn2C2CCN(Cc3ccc(COc4cccc5c4C(=O)N(C4CCC(=O)NC4=O)C5=O)cc3)CC2)C1 (centres unmarked) [P-195, 4-((4-((4-(5-acetyl-3-(7-(difluoromethyl)-6-(1-methyl-1H-pyrazol-4-yl)-3,4-dihydroquinolin-1(2H)-yl)-4,5,6,7-tetrahydro-1H-pyrazolo[4,3-c]pyridin-1-yl)piperidin-1-yl)methyl)benzyl)oxy)-2-(2,6-dioxopiperidin-3-yl)isoindoline-1,3-dione] | – | – | –
11 | 2.6 | > 80 | CC(=O)N1CCc2c(c(N3CCCc4cc(-c5cnn(C)c5)c(C(F)F)cc43)nn2C2CCN(C(=O)CCCNc3ccc(C(=O)NC4CCC(=O)NC4=O)c4ncccc34)CC2)C1 (centres unmarked) [P-253, 5-((4-(4-(5-acetyl-3-(7-(difluoromethyl)-6-(1-methyl-1H-pyrazol-4-yl)-3,4-dihydroquinolin-1(2H)-yl)-4,5,6,7-tetrahydro-1H-pyrazolo[4,3-c]pyridin-1-yl)piperidin-1-yl)-4-oxobutyl)amino)-N-(2,6-dioxopiperidin-3-yl)quinoline-8-carboxamide] | – | – | –
12 | 1.4 | > 80 | CC(=O)N1CCc2c(c(N3CCCc4cc(-c5cnn(C)c5)c(C(F)F)cc43)nn2C2CCN(C(=O)CCCCNc3ccc(C(=O)NC4CCC(=O)NC4=O)c4ncccc34)CC2)C1 (centres unmarked) [P-241, 5-((5-(4-(5-acetyl-3-(7-(difluoromethyl)-6-(1-methyl-1H-pyrazol-4-yl)-3,4-dihydroquinolin-1(2H)-yl)-4,5,6,7-tetrahydro-1H-pyrazolo[4,3-c]pyridin-1-yl)piperidin-1-yl)-5-oxopentyl)amino)-N-(2,6-dioxopiperidin-3-yl)quinoline-8-carboxamide] | – | – | –
13 | 0.4 | > 80 | CC(=O)N1CCc2c(c(N3CCCc4cc(-c5cnn(C)c5)c(C(F)F)cc43)nn2C2CCN(C(=O)CCCN3CCC(C#Cc4cccc5c4n(C)c(=O)n5C4CCC(=O)NC4=O)CC3)CC2)C1 (centres unmarked) [P-229, 3-(4-((1-(4-(4-(5-acetyl-3-(7-(difluoromethyl)-6-(1-methyl-1H-pyrazol-4-yl)-3,4-dihydroquinolin-1(2H)-yl)-4,5,6,7-tetrahydro-1H-pyrazolo[4,3-c]pyridin-1-yl)piperidin-1-yl)-4-oxobutyl)piperidin-4-yl)ethynyl)-3-methyl-2-oxo-2,3-dihydro-1H-benzo[d]imidazol-1-yl)piperidine-2,6-dione] | – | – | –
